The source made the active and inactive calls. No cut-off for these calls is given here.
What was measured:
Pyruvate carboxylase [1] = target: T1, Pyruvate carboxylase (Staphylococcus aureus (strain Mu50 / ATCC 700699), UniProt A0A0H3JRU9); assay: Inhibition of Staphylococcus aureus Pyruvate carboxylase using pyruvate, HCO3-, ATP and NADH as substrate assessed as oxaloacetate formation by measuring NADH oxidation by spectrophotometry based malate dehydrogenase coupled enzyme assay
T1 sequence (A0A0H3JRU9 whole entry): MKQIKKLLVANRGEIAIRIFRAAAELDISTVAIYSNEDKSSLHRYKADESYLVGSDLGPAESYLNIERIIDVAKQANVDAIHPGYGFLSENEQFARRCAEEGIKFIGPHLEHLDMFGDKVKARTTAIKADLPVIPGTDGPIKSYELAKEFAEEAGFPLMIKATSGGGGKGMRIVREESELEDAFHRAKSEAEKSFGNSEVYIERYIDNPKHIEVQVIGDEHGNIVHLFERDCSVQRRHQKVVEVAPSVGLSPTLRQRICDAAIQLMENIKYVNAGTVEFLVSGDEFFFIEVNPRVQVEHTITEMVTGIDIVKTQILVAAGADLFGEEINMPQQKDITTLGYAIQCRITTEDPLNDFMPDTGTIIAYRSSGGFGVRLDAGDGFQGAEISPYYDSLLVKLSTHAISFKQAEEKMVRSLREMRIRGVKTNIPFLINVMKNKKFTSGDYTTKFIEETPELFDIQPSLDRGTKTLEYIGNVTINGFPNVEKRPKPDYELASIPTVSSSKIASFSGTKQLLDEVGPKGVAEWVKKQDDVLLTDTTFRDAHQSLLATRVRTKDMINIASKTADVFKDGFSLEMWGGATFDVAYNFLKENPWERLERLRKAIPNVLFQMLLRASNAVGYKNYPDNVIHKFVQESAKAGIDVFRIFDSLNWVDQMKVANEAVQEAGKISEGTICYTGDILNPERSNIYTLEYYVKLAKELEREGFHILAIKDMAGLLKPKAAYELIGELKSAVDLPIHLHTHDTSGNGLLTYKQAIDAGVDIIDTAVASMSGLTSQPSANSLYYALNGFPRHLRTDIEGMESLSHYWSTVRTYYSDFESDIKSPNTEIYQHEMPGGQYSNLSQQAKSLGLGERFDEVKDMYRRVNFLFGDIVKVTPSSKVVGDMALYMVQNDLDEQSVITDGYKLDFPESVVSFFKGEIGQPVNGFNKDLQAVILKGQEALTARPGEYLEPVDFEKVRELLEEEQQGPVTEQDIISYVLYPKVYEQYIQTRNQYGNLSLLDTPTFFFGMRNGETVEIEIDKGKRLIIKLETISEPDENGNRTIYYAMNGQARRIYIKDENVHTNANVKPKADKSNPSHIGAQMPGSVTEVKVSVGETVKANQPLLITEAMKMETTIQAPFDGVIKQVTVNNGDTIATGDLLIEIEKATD

Homo sapiens = organism: Homo sapiens; assay: Inhibition of MDH (unknown origin)
Pyruvate carboxylase [2] = target: T1, Pyruvate carboxylase; assay: Non-competitive inhibition of Staphylococcus aureus pyruvate carboxylase assessed as inhibition constant pretreated with ATP followed by pyruvate, HCO3- and NADH addition by steady state kinetic analysis
Pyruvate carboxylase [3] = target: T1, Pyruvate carboxylase; assay: Mixed type inhibition of Staphylococcus aureus pyruvate carboxylase assessed as inhibition constant pretreated with pyruvate followed by ATP, HCO3- and NADH addition by steady state kinetic analysis
[4] = target: Carbonic anhydrase 2 (Homo sapiens) (UniProt P00918); assay: Inhibition of human CA2 at 200 uM
[5] = target: Macrophage metalloelastase (Homo sapiens) (UniProt P39900); assay: Inhibition of MMP-12 (unknown origin) at 50 uM
Macrophage metalloelastase (Homo sapiens), sequence (P39900 106-470 limits assumed): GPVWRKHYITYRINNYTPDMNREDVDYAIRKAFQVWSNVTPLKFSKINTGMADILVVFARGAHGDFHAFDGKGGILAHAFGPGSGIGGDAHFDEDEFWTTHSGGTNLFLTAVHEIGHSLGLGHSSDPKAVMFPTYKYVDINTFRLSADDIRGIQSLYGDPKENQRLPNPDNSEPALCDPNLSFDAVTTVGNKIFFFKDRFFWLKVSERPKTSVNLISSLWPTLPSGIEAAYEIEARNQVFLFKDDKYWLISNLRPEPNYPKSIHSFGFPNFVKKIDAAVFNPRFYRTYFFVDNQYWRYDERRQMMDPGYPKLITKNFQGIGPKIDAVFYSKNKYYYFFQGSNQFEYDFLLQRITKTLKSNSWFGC

Pseudomonas syringae = assay: Inhibition of Pseudomonas syringae guanidine carboxylase using urea as substrate at 200 uM by coupled enzyme assay
Pyruvate carboxylase [6] = target: T1, Pyruvate carboxylase; assay: Mixed type inhibition of Staphylococcus aureus pyruvate carboxylase assessed as inhibition constant pretreated with ATP followed by pyruvate, HCO3- and NADH addition by steady state kinetic analysis
Pyruvate carboxylase [7] = target: T1, Pyruvate carboxylase; assay: Inhibition of Staphylococcus aureus pyruvate carboxylase by FVB based high-throughput fixed time assay

CCOC(=O)CN1C(=O)C(=O)N(Cc2cccs2)C1=O
IC50 (Pyruvate carboxylase [1]): 5.2 µM | inhibition (Homo sapiens): inactive | Ki (Pyruvate carboxylase [2]): 14 µM | Ki (Pyruvate carboxylase [3]): 1.8 µM | inhibition [4]: inactive | inhibition [5]: inactive | inhibition (Pseudomonas syringae): inactive

CCOC(=O)CN1C(=O)C(=O)N(CCc2cccs2)C1=O
IC50 (Pyruvate carboxylase [1]): 7.9 µM | inhibition (Homo sapiens): inactive | inhibition [4]: inactive | inhibition [5]: inactive | inhibition (Pseudomonas syringae): inactive

O=C1C(=O)N(c2ccc(Br)cc2)C(=O)N1Cc1ccccc1
IC50 (Pyruvate carboxylase [1]): 290 µM | inhibition (Homo sapiens): inactive

CCOC(=O)CN1C(=O)C(=O)N(CC(=O)OCC)C1=O
IC50 (Pyruvate carboxylase [1]): 9 µM | inhibition (Homo sapiens): inactive

CCOC(=O)CN1C(=O)C(=O)N(c2ccccc2)C1=O
IC50 (Pyruvate carboxylase [1]): 5.1 µM | inhibition (Homo sapiens): inactive | inhibition [4]: inactive | inhibition [5]: inactive | inhibition (Pseudomonas syringae): inactive

O=C1C(=O)N(c2ccccc2)C(=O)N1CCc1ccccc1
IC50 (Pyruvate carboxylase [1]): 370 µM | inhibition (Homo sapiens): inactive

O=C1C(=O)N(c2ccccc2)C(=O)N1CCc1cccs1
IC50 (Pyruvate carboxylase [1]): 92 µM | inhibition (Homo sapiens): inactive

CCOC(=O)CN1C(=O)C(=O)N(c2ccc(F)cc2)C1=O
IC50 (Pyruvate carboxylase [1]): 3.4 µM | inhibition (Homo sapiens): inactive | inhibition [4]: inactive | inhibition [5]: inactive | inhibition (Pseudomonas syringae): inactive

CCOC(=O)CN1C(=O)C(=O)N(Cc2ccccc2)C1=O
IC50 (Pyruvate carboxylase [1]): 7.3 µM | inhibition (Homo sapiens): inactive | Ki (Pyruvate carboxylase [6]): 7 µM | Ki (Pyruvate carboxylase [3]): 0.58 µM | inhibition [4]: inactive | inhibition [5]: inactive | inhibition (Pseudomonas syringae): inactive

O=C(O)CN1C(=O)C(=O)N(Cc2ccccc2)C1=O
IC50 (Pyruvate carboxylase [1]): 30 µM | inhibition (Homo sapiens): inactive | Ki (Pyruvate carboxylase [2]): 140 µM | Ki (Pyruvate carboxylase [3]): 9 µM | inhibition [4]: inactive | inhibition [5]: inactive | inhibition (Pseudomonas syringae): inactive

CC(c1ccccc1)N1C(=O)C(=O)N(c2ccccc2)C1=O (configuration not stated)
IC50 (Pyruvate carboxylase [1]): 35 µM | inhibition (Homo sapiens): inactive

COC(=O)CN1C(=O)C(=O)N(c2ccccc2)C1=O
IC50 (Pyruvate carboxylase [1]): 3.5 µM | inhibition (Homo sapiens): inactive

COc1ccc(N2C(=O)C(=O)N(Cc3ccccc3)C2=O)cc1
IC50 (Pyruvate carboxylase [1]): 17 µM | inhibition (Homo sapiens): inactive | inhibition [4]: inactive | inhibition [5]: inactive | inhibition (Pseudomonas syringae): inactive

CCOC(=O)CCN1C(=O)C(=O)N(c2ccc(F)cc2)C1=O
IC50 (Pyruvate carboxylase [1]): 29 µM | inhibition (Homo sapiens): inactive | inhibition [4]: inactive | inhibition [5]: inactive | inhibition (Pseudomonas syringae): inactive

CCOC(=O)CN1C(=O)C(=O)N(Cc2ccco2)C1=O
IC50 (Pyruvate carboxylase [1]): 12 µM | inhibition (Homo sapiens): inactive | inhibition [4]: inactive | inhibition [5]: inactive | inhibition (Pseudomonas syringae): inactive

CCOC(=O)CN1C(=O)C(=O)N(CCc2ccccc2)C1=O
IC50 (Pyruvate carboxylase [1]): 9.3 µM | inhibition (Homo sapiens): inactive | inhibition [4]: inactive | inhibition [5]: inactive | inhibition (Pseudomonas syringae): inactive

O=C1C(=O)N(C2CCCc3ccccc32)C(=O)N1c1ccccc1 (configuration not stated)
IC50 (Pyruvate carboxylase [1]): 59 µM | inhibition (Homo sapiens): inactive

CN1C(=O)C(=O)N(CC(=O)c2cccs2)C1=O
IC50 (Pyruvate carboxylase [7]): 35 µM | IC50 (Pyruvate carboxylase [1]): 45 µM | inhibition (Homo sapiens): inactive | Ki (Pyruvate carboxylase [2]): 38 µM | Ki (Pyruvate carboxylase [3]): 5.2 µM | inhibition [4]: inactive | inhibition [5]: inactive | inhibition (Pseudomonas syringae): inactive

O=C1C(=O)N(c2ccccc2)C(=O)N1Cc1ccccc1
IC50 (Pyruvate carboxylase [1]): 64 µM | inhibition (Homo sapiens): inactive | Ki (Pyruvate carboxylase [2]): 150 µM | Ki (Pyruvate carboxylase [3]): 24 µM | inhibition [4]: inactive | inhibition [5]: inactive | inhibition (Pseudomonas syringae): inactive

COC(=O)CCN1C(=O)C(=O)N(Cc2ccccc2)C1=O
IC50 (Pyruvate carboxylase [1]): 68 µM | inhibition (Homo sapiens): inactive

CCCOC(=O)CN1C(=O)C(=O)N(c2ccccc2)C1=O
IC50 (Pyruvate carboxylase [1]): 5 µM | inhibition (Homo sapiens): inactive | inhibition [4]: inactive | inhibition [5]: inactive | inhibition (Pseudomonas syringae): inactive
